Laboratory results: patent publication US11292796B2 (SIGNAL PHARMACEUTICALS, LLC, priority 2008, dated 2022)

Target: T1, mTOR (Homo sapiens, UniProt P42345)
T1 construct: purchased Invitrogen PR8683A
Assay: mTOR HTR-FRET assay
Assay type: biochemical
Conditions: read-out: Act. Level (IC50 in mTor HTR-FRET assay)
Summary of the method: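 Test compounds, taken from 10 mM DMSO stocks and diluted, were mixed with mTOR enzyme (0.200 μg/mL) in Tris buffer pH 7.4 with 100 mM NaCl, 0.1% Tween-20 and 1 mM DTT. ATP/substrate addition initiated the reaction, alongside compound-free controls.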

T1 sequence (P42345 1360-2549 limits assumed): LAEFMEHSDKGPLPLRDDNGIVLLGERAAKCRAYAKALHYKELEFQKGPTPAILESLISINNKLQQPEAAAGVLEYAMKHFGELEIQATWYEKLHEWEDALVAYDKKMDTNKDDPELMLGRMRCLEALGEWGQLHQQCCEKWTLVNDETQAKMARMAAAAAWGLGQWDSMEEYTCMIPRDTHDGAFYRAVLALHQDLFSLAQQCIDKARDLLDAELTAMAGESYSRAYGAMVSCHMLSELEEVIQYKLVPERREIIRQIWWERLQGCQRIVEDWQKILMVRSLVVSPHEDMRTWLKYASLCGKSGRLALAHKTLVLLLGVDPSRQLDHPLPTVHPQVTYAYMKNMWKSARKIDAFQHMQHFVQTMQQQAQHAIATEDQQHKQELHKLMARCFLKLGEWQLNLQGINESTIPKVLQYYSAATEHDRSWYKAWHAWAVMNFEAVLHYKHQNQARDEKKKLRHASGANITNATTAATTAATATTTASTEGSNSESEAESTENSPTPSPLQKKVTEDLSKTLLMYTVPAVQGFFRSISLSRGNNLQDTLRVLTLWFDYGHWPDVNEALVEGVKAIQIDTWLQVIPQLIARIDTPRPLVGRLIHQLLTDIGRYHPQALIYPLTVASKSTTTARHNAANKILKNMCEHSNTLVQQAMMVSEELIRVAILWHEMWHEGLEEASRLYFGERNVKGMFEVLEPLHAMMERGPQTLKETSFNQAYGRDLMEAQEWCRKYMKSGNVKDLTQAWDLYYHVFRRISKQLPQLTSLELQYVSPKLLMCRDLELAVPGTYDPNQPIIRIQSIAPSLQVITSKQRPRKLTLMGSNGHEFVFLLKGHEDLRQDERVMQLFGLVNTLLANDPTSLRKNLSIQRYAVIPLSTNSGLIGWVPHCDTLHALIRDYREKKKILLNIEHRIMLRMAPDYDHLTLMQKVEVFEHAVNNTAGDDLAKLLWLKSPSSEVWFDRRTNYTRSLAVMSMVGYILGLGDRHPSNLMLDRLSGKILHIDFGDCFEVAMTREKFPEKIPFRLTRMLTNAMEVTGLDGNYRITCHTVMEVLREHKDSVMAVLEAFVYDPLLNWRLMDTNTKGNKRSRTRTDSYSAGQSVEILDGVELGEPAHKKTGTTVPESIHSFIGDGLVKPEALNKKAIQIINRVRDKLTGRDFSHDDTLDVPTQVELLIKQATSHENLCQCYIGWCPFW

| SMILES | IC50 [nM] |
| --- | --- |
| CCN1CC(=O)Nc2ncc(-c3ccc(-c4nnc[nH]4)cc3)nc21 [Example 141, 6-(4-(4H-1,2,4-triazol-3-yl)phenyl)-4-ethyl-3,4-dihydropyrazino[2,3-b]pyrazin-2(1H)-one] | 250 to 500 |
| O=C1CN(CCC2CCOCC2)c2nc(-c3ccc(-c4nnc[nH]4)c(F)c3)cnc2N1 [Example 60, 6-(3-fluoro-4-(4H-1,2,4-triazol-3-yl)phenyl)-4-(2-(tetrahydro-2H-pyran-4-yl)ethyl)-3,4-dihydropyrazino[2,3-b]pyrazin-2(1H)-one] | 0.005 to 250 |
| Cc1cc(C(N)=O)ncc1-c1cnc2c(n1)N(CC1CCOCC1)C(=O)CN2 [Example 199, 4-methyl-5-(7-oxo-8-((tetrahydro-2H-pyran-4-yl)methyl)-5,6,7,8-tetrahydropyrazino[2,3-b]pyrazin-2-yl)picolinamide] | 1000 to 10000 |
